# Results taken from article PMC8364340 (Drug Design, Development and Therapy, 2021).
# System: STZ-induced diabetic rats
# Experiment: Blood glucose-lowering efficacy in STZ-induced diabetic rats
# Format: in vivo
# Conditions: subcutaneous, 100 nmol/kg, mean ± SD, n=6
substance,measurement,setting,value
"Humulin R: Recombinant Human Insulin Injection (Humulin R, 3mL:300IU), Lilly France",AUC for Glucose AUC0-24h,"glucometer, trapezoidal rule","10,990 ± 415.5 mg·h/dL"
same,AUC for Glucose AUC0-1h,,421 ± 20.4 mg·h/dL
same,AUC for Glucose AUC0-2h,,724 ± 52.2 mg·h/dL
same,AUC for Glucose AUC0-4h,,1328 ± 100.1 mg·h/dL
same,AUC for Glucose AUC0-6h,,2156 ± 132.0 mg·h/dL
same,AUC for Glucose AUC0-8h,,3092 ± 174.8 mg·h/dL
same,AUC for Glucose AUC0-12h,,5070 ± 259.4 mg·h/dL
same,AUC for Glucose AUC0-16h,,7146 ± 321.1 mg·h/dL
